The test concerns lungs. Description: Antigen-induced elevation of lung perfusion pressure (isolated perfused sensitized lung, ovalbumen). Conditions: Cavia porcellus; perfused lungs of ovalbumen-sensitized guinea pigs; compound in krebs fluid 30 minutes prior to second antigen dose (15 μg ovalbumen); at least four lungs per concentration; read-out: IC50 (inhibition of antigen induced broncho-constriction). Also on record: species or system guinea pig (Dunkin Hartley). The procedure:
Antigen-induced elevation of lung perfusion pressure
Male Dunkin Hartley guinea pigs (Porcellus) weighing between 450-700 g were used (four per test concentration) and were housed in cages. The animals were sensitized by two weekly exposures to 1% W/V aerosol ovalbumen. The animals were anaesthetized with 2.5 mg/kg diazepam i.p. and 1 ml/kg Hyponorm i.m. Following anaethesia, the animals were exsanguinated by severing both carotid arteries and the chest was opened and the lungs removed, split into two at the carina and both cannulated via the main lobar bronchus and connected to a perfusion system. The lungs were perfused with aerated krebs fluid (95% O2 :5% CO2) at 37° C. and 5 μg in 0.1 ml Ovalbumen was injected through an injection port proximal to each lung. Elevation of perfusion pressure by the antigen was recorded and sixty minutes later, 15 μg of ovalbumen were administered. The test compounds were added to the krebs fluid reservoir thirty minutes prior to the second antigen dose. For each weekly batch of animals used, control measurements were made without treatment (n=10 ). The second antigen response was expressed as a percentage of the first. For each test, at least four lungs from four different animals were used per concentration. The percentage inhibition of antigen induced broncho-constriction was calculated.
Turning to `CC(C)OC(=O)Cc1ccc2c(c1)sc1nc(=O)cc(-c3ccccc3)n12` [Example 6, Isopropyl 2-oxo-4-phenyl-2H-pyrimido[2,1-b]benzothiazole-8-acetate], the IC50 was 1 to 10 µM.
The same measure for `CCOC(=O)Cc1ccc2c(c1)sc1nc(=O)cc(-c3ccc(Cl)cc3)n12` [Example 11, Ethyl 4-(4-chlorophenyl)-2-oxo-2H-pyrimido[2,1-b]benzothiazole-8-acetate]: 10 µM; for `O=C(Cc1ccc2c(c1)sc1nc(=O)cc(-c3ccccc3)n12)N1CCOCC1` [Example 46, 1-(N-morpholino)-2-(2-oxo-4-phenyl-2H-pyrimido[2,1-b]benzothiazole-8-yl)-ethanone]: more than 100 µM.
With `CCCCC(C)(C(=O)OCC)c1ccc2c(c1)sc1nc(=O)cc(-c3ccccc3)n12` (stereo not drawn) [Example 42, Ethyl α-butyl-α-methyl-4-phenyl-2-oxo-2H-pyrimido[2,1-b]benzothiazole-8-acetate] the figure was 10 to 100 µM; with `CCN(CC)C(=O)Cc1ccc2c(c1)sc1nc(=O)cc(-c3ccccc3)n12` [Example 47, N,N-diethyl-2-oxo-4-phenyl-2H-pyrimido-[2,1-b]benzothiazole-8-acetamide], 10 µM.
With `CCOC(=O)C(C)c1ccc2c(c1)sc1nc(=O)cc(-c3ccccc3)n12` (stereo not drawn) [Example 20, Ethyl α-methyl-2-oxo-4-phenyl-2H-pyrimido[2,1-b]benzothiazole-8-acetate], the IC50 amounted to 0.1 µM.
With `CCOC(=O)C(C)c1ccc2c(c1)sc1nc(=O)cc(Cc3ccccc3)n12` (stereo not drawn) [Example 27, Ethyl α-methyl-4-benzyl-2-oxo-2H-pyrimido[2,1-b]benzothiazole-8-acetate] the figure was 10 to 100 µM; with `CCOC(=O)C(C)(CC)c1ccc2c(c1)sc1nc(=O)cc(-c3ccccc3)n12` (stereo not drawn) [Example 37, Ethyl α-ethyl-α-methyl-4-phenyl-2-oxo-2H-pyrimido[2,1-b]benzothiazole-8-acetate], 1 µM.
The same measure for `CCOC(=O)C(C)c1ccc2c(c1)sc1nc(=O)ccn12` (stereo not drawn) [Example 2, Ethyl 2-oxo-2H-pyrimido[2,1-b]benzothiazole-8-α-methylacetate]: more than 100 µM; for `CC(C(=O)OC12CC3CC(CC(C3)C1)C2)c1ccc2c(c1)sc1nc(=O)cc(-c3ccccc3)n12` (stereo not drawn) [Example 50, 1-Adamantyl α-methyl-2-oxo-4-phenyl-2H-pyrimido[2,1-b]benzothiazole-8-acetate]: not above 1 µM; for `CCOC(=O)Cc1ccc2c(c1)sc1nc(=O)cc(-c3ccccc3Cl)n12` [Example 12, Ethyl 4-(2-chlorophenyl)-2-oxo-2H-pyrimido[2,1-b]benzothiazole-8-acetate]: 0.1 to 1 µM.
For the molecule `CCOC(=O)Cc1ccc2c(c1)sc1nc(=O)cc(C(C)C)n12` [Example 25, Ethyl 4-isopropyl-2-oxo-2H-pyrimido[2,1-b]benzothiazole-8-acetate], the IC50 was 10 to 100 µM.
As for `CCOC(=O)C(CC)(CC)c1ccc2c(c1)sc1nc(=O)cc(-c3ccccc3)n12` [Example 40, Ethyl α,α-diethyl-4-phenyl-2-oxo-2H-pyrimido[2,1-b]benzothiazole-8-acetate], the concentration for half-maximal inhibition (IC50) fell in the range of 10 to 100 µM.
With `CCOC(=O)C(C)c1ccc2c(c1)sc1nc(=O)cc(-c3ccc(Cl)cc3)n12` (stereo not drawn) [Example 22, Ethyl α-methyl 4-(4-chlorophenyl)-2-oxo-2H-pyrimido[2,1-b]benzothiazole-8-acetate] the figure was 0.1 to 1 µM; with `CCOC(=O)C(C)c1ccc2c(c1)sc1nc(=O)cc(C(C)C)n12` (stereo not drawn) [Example 28, Ethyl α-methyl-4-isopropyl-2-oxo-2H-pyrimido[2,1-b]benzothiazole-8-acetate], 10 to 100 µM; with `CCCC(C(=O)OCC)c1ccc2c(c1)sc1nc(=O)cc(-c3ccccc3)n12` (stereo not drawn) [Example 32, Ethyl α-propyl-4-phenyl-2-oxo-2H-pyrimido[2,1-b]benzothiazole-8-acetate], 1 µM.
With `CCCC(CC)(C(=O)OCC)c1ccc2c(c1)sc1nc(=O)cc(-c3ccccc3)n12` (stereo not drawn) [Example 41, Ethyl α-ethyl-α-propyl-4-phenyl-2-oxo-2H-pyrimido[2,1-b]benzothiazole-8-acetate] the figure was 10 to 100 µM.
As to `CCOC(=O)C(c1ccc2c(c1)sc1nc(=O)cc(-c3ccccc3)n12)C(C)C` (stereo not drawn) [Example 33, Ethyl α-isopropyl-4-phenyl-2-oxo-2H-pyrimido[2,1-b]benzothiazole-8-acetate], the IC50 was 10 to 100 µM.
The same measure for `CCOC(=O)Cc1ccc2c(c1)sc1nc(=O)cc(CC)n12` [Example 16, Ethyl 4-ethyl-2-oxo-2H-pyrimido[2,1-b]benzothiazole-8-acetate]: 100 µM; for `CCOC(=O)Cc1ccc2c(c1)sc1nc(=O)cc(-c3cccc(Cl)c3)n12` [Example 14, Ethyl 4-(3-chlorophenyl)-2-oxo-2H-pyrimido[2,1-b]benzothiazole-8-acetate]: not above 1 µM; for `CCCCc1cc(=O)nc2sc3cc(CC(=O)OCC)ccc3n12` [Example 18, Ethyl 4-n-butyl-2-oxo-2H-pyrimido[2,1-b]benzothiazole-8-acetate]: 10 µM.
The same measure for `CCOC(=O)C(C)(C)c1ccc2c(c1)sc1nc(=O)cc(-c3ccccc3)n12` [Example 36, Ethyl α,α-dimethyl-4-phenyl-2-oxo-2H-pyrimido[2,1-b]benzothiazole-8-acetate]: 1 to 10 µM.
The same measure for `CCOC(=O)Cc1ccc2c(c1)sc1nc(=O)cc(-c3ccc([N+](=O)[O-])cc3)n12` [Example 10, Ethyl 4-(4-nitrophenyl)-2-oxo-2H-pyrimido[2,1-b]benzothiazole-8-acetate]: 10 to 100 µM; for `CCCCC(C(=O)OCC)c1ccc2c(c1)sc1nc(=O)cc(-c3ccccc3)n12` (stereo not drawn) [Example 34, Ethyl α-butyl-4-phenyl-2-oxo-2H-pyrimido[2,1-b]benzothiazole-8-acetate]: 1 to 10 µM; for `CCCCOC(=O)Cc1ccc2c(c1)sc1nc(=O)cc(-c3ccccc3)n12` [Example 7, n-Butyl 2-oxo-4-phenyl-2H-pyrimido[2,1-b]benzothiazole-8-acetate]: more than 10 µM.
For the molecule `CC(C)OC(=O)C(C)c1ccc2c(c1)sc1nc(=O)cc(-c3ccccc3)n12` (stereo not drawn) [Example 35, Isopropyl α-methyl-4-phenyl-2-oxo-2H-pyrimido[2,1-b]benzothiazole-8-acetate], the IC50 is 0.1 to 1 µM.
On to `CCOC(=O)Cc1ccc2c(c1)sc1nc(=O)cc(-c3ccccc3)n12` [Example 3, Ethyl 2-oxo-4-phenyl-2H-pyrimido[2,1-b]benzothiazole-8-acetate], for which the IC50 came out at 1 µM.
The same measure for `CC(C(=O)OC(C)(C)C)c1ccc2c(c1)sc1nc(=O)cc(-c3ccccc3)n12` (stereo not drawn) [Example 39, t-Butyl α-methyl-4-phenyl-2-oxo-2H-pyrimido[2,1-b]benzothiazole-8-acetate]: 0.1 µM; for `CCCc1cc(=O)nc2sc3cc(CC(=O)OCC)ccc3n12` [Example 17, Ethyl 2-oxo-4-n-propyl-2H-pyrimido[2,1-b]benzothiazole-8-acetate]: 1 to 10 µM; for `CCCOC(=O)Cc1ccc2c(c1)sc1nc(=O)cc(-c3ccccc3)n12` [Example 5, n-Propyl 2-oxo-4-phenyl-2H-pyrimido[2,1-b]benzothiazole-8-acetate]: less than 10 µM.
The same measure for `CCOC(=O)Cc1ccc2c(c1)sc1nc(=O)cc(C)n12` [Example 15, Ethyl 4-methyl-2-oxo-2H-pyrimido[2,1-b]benzothiazole-8-acetate]: 10 to 100 µM; for `CN(C)C(=O)Cc1ccc2c(c1)sc1nc(=O)cc(-c3ccccc3)n12` [Example 44, N,N-dimethyl-2-oxo-4-phenyl-2H-pyrimido[2,1-b]benzothiazole-8-acetamide]: 10 to 100 µM.
With `CCOC(=O)Cc1ccc2c(c1)sc1nc(=O)cc(C3CCCCC3)n12` [Example 30, Ethyl 4-cyclohexyl-2-oxo-2H-pyrimido[2,1-b]benzothiazole-8-acetate] the figure was 1 to 10 µM; with `CCOC(=O)Cc1ccc2c(c1)sc1nc(=O)cc(-c3ccc(OC)cc3)n12` [Example 9, Ethyl 4-(4-methoxyphenyl)-2-oxo-2H-pyrimido[2,1-b]benzothiazole-8-acetate], 1 µM; with `CCOC(=O)C(C)c1ccc2c(c1)sc1nc(=O)cc(-c3cccc(Cl)c3)n12` (stereo not drawn) [Example 23, Ethyl α-methyl 4-(3-chlorophenyl) 2-oxo-2H-pyrimido[2,1-b]benzothiazole-8-acetate], not above 1 µM.
Turning to `O=C(Cc1ccc2c(c1)sc1nc(=O)cc(-c3ccccc3)n12)N1CCCCC1` [Example 48, 1-(N-piperidino)-2-(2-oxo-4-phenyl-2H-pyrimido[2,1-b]benzothiazole-8-yl)-ethanone], the IC50 lay in the range of 10 to 100 µM.
For the molecule `CCNC(=O)Cc1ccc2c(c1)sc1nc(=O)cc(-c3ccccc3)n12` [Example 45, N-ethyl-2-oxo-4-phenyl-2H-pyrimido[2,1-b]benzothiazole-8-acetamide], the half-maximal inhibitory concentration (IC50) lay in the range of 10 to 100 µM.
With `CCCC(C)(C(=O)OCC)c1ccc2c(c1)sc1nc(=O)cc(-c3ccccc3)n12` (stereo not drawn) [Example 38, Ethyl α-methyl-α-propyl-4-phenyl-2-oxo-2H-pyrimido[2,1-b]benzothiazole-8-acetate] the figure was 1 µM; with `CCOC(=O)C(CC)c1ccc2c(c1)sc1nc(=O)cc(-c3ccccc3)n12` (stereo not drawn) [Example 29, Ethyl α-ethyl-4-phenyl-2-oxo-2H-pyrimido[2,1-b]benzothiazole-8-acetate], 0.1 µM.
